According to PubChem BioAssay (NCI):
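The compound was tested at five concentrations on cells cultured in 96-well plates, with a 48-hour exposure period. TGI is the concentration that stops growth completely.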

Key:
Assay in all cases: inhibition of tumour cell growth, NCI panel, 48 h
SN12C renal = tested on: SN12C renal
SR leukemia = tested on: SR leukemia
HL-60(TB) leukemia = tested on: HL-60(TB) leukemia
PC-3 prostate = tested on: PC-3 prostate
HCT-15 colon = tested on: HCT-15 colon
MDA-MB-435 = tested on: MDA-MB-435
NCI-H226 lung = tested on: NCI-H226 lung
SNB-75 CNS = tested on: SNB-75 CNS
IGROV1 ovarian = tested on: IGROV1 ovarian
SK-MEL-5 melanoma = tested on: SK-MEL-5 melanoma
UACC-257 melanoma = tested on: UACC-257 melanoma
MOLT-4 leukemia = tested on: MOLT-4 leukemia
SW-620 colon = tested on: SW-620 colon
M14 melanoma = tested on: M14 melanoma
HCT-116 colon = tested on: HCT-116 colon
NCI-H460 lung = tested on: NCI-H460 lung
OVCAR-5 ovarian = tested on: OVCAR-5 ovarian
BT-549 breast = tested on: BT-549 breast
MALME-3M melanoma = tested on: MALME-3M melanoma
K-562 leukemia = tested on: K-562 leukemia
NCI/ADR-RES ovarian = tested on: NCI/ADR-RES ovarian
SK-MEL-2 melanoma = tested on: SK-MEL-2 melanoma
A498 renal = tested on: A498 renal
HCC-2998 colon = tested on: HCC-2998 colon
SK-MEL-28 melanoma = tested on: SK-MEL-28 melanoma
OVCAR-4 ovarian = tested on: OVCAR-4 ovarian
SNB-19 CNS = tested on: SNB-19 CNS
HOP-92 NSCLC = tested on: HOP-92 NSCLC
CCRF-CEM leukemia = tested on: CCRF-CEM leukemia
MDA-MB-231 breast = tested on: MDA-MB-231 breast
TK-10 renal = tested on: TK-10 renal
RPMI-8226 leukemia = tested on: RPMI-8226 leukemia
SF-295 CNS = tested on: SF-295 CNS
SF-539 CNS = tested on: SF-539 CNS
UACC-62 melanoma = tested on: UACC-62 melanoma
A549 NSCLC = tested on: A549 NSCLC
U251 CNS = tested on: U251 CNS
RXF 393 renal = tested on: RXF 393 renal
SF-268 CNS = tested on: SF-268 CNS
T-47D breast = tested on: T-47D breast
HS 578T breast = tested on: HS 578T breast
COLO 205 colon = tested on: COLO 205 colon
DU-145 prostate = tested on: DU-145 prostate
CAKI-1 renal = tested on: CAKI-1 renal
OVCAR-3 ovarian = tested on: OVCAR-3 ovarian
LOX IMVI melanoma = tested on: LOX IMVI melanoma
EKVX NSCLC = tested on: EKVX NSCLC
MDA-N = tested on: MDA-N
SK-OV-3 ovarian = tested on: SK-OV-3 ovarian
NCI-H23 lung = tested on: NCI-H23 lung
ACHN renal = tested on: ACHN renal
786-0 renal = tested on: 786-0 renal
NCI-H522 lung = tested on: NCI-H522 lung
HT29 colon = tested on: HT29 colon
MCF7 breast = tested on: MCF7 breast
OVCAR-8 ovarian = tested on: OVCAR-8 ovarian
KM12 colon = tested on: KM12 colon
HOP-62 NSCLC = tested on: HOP-62 NSCLC
UO-31 renal = tested on: UO-31 renal

CC1C(=O)OC2CC[N+]3([O-])CC=C(COC(=O)C(C)(O)C1(C)O)C23 (stereo unspecified)
TGI (SN12C renal): > 100 µM | TGI (SR leukemia): > 100 µM | TGI (HL-60(TB) leukemia): > 100 µM | TGI (PC-3 prostate): > 100 µM | TGI (HCT-15 colon): > 100 µM | TGI (MDA-MB-435): > 100 µM | TGI (NCI-H226 lung): > 100 µM | TGI (SNB-75 CNS): > 100 µM | TGI (IGROV1 ovarian): > 100 µM | TGI (SK-MEL-5 melanoma): > 100 µM | TGI (UACC-257 melanoma): > 100 µM | TGI (MOLT-4 leukemia): > 100 µM | TGI (SW-620 colon): > 100 µM | TGI (M14 melanoma): > 100 µM | TGI (HCT-116 colon): > 100 µM | TGI (NCI-H460 lung): > 100 µM | TGI (OVCAR-5 ovarian): > 100 µM | TGI (BT-549 breast): > 100 µM | TGI (MALME-3M melanoma): > 100 µM | TGI (K-562 leukemia): > 100 µM | TGI (NCI/ADR-RES ovarian): > 100 µM | TGI (SK-MEL-2 melanoma): > 100 µM | TGI (A498 renal): > 100 µM | TGI (HCC-2998 colon): > 100 µM | TGI (SK-MEL-28 melanoma): > 100 µM | TGI (OVCAR-4 ovarian): > 100 µM | TGI (SNB-19 CNS): > 100 µM | TGI (HOP-92 NSCLC): > 100 µM | TGI (CCRF-CEM leukemia): > 100 µM | TGI (MDA-MB-231 breast): > 100 µM | TGI (TK-10 renal): > 100 µM | TGI (RPMI-8226 leukemia): > 100 µM | TGI (SF-295 CNS): > 100 µM | TGI (SF-539 CNS): > 100 µM | TGI (UACC-62 melanoma): > 100 µM | TGI (A549 NSCLC): > 100 µM | TGI (U251 CNS): > 100 µM | TGI (RXF 393 renal): > 100 µM | TGI (SF-268 CNS): > 100 µM | TGI (T-47D breast): > 100 µM | TGI (HS 578T breast): > 100 µM | TGI (COLO 205 colon): > 100 µM | TGI (DU-145 prostate): > 100 µM | TGI (CAKI-1 renal): > 100 µM | TGI (OVCAR-3 ovarian): > 100 µM | TGI (LOX IMVI melanoma): > 100 µM | TGI (EKVX NSCLC): > 100 µM | TGI (MDA-N): > 100 µM | TGI (SK-OV-3 ovarian): > 100 µM | TGI (NCI-H23 lung): > 100 µM | TGI (ACHN renal): > 100 µM | TGI (786-0 renal): > 100 µM | TGI (NCI-H522 lung): > 100 µM | TGI (HT29 colon): > 100 µM | TGI (MCF7 breast): > 100 µM | TGI (OVCAR-8 ovarian): > 100 µM | TGI (KM12 colon): > 100 µM | TGI (HOP-62 NSCLC): > 100 µM

O=[N+]([O-])c1ccc(CSCc2ccc(Cl)cc2)cc1
TGI (SN12C renal): > 100 µM | TGI (SR leukemia): > 100 µM | TGI (HL-60(TB) leukemia): > 100 µM | TGI (PC-3 prostate): > 100 µM | TGI (HCT-15 colon): > 100 µM | TGI (MDA-MB-435): > 100 µM | TGI (NCI-H226 lung): > 100 µM | TGI (SNB-75 CNS): > 100 µM | TGI (IGROV1 ovarian): > 100 µM | TGI (SK-MEL-5 melanoma): > 100 µM | TGI (UACC-257 melanoma): > 100 µM | TGI (MOLT-4 leukemia): > 100 µM | TGI (SW-620 colon): > 100 µM | TGI (M14 melanoma): > 100 µM | TGI (HCT-116 colon): > 100 µM | TGI (NCI-H460 lung): > 100 µM | TGI (OVCAR-5 ovarian): > 100 µM | TGI (BT-549 breast): > 100 µM | TGI (MALME-3M melanoma): > 100 µM | TGI (K-562 leukemia): > 100 µM | TGI (NCI/ADR-RES ovarian): > 100 µM | TGI (SK-MEL-2 melanoma): > 100 µM | TGI (A498 renal): > 100 µM | TGI (SK-MEL-28 melanoma): > 100 µM | TGI (OVCAR-4 ovarian): > 100 µM | TGI (SNB-19 CNS): > 100 µM | TGI (HOP-92 NSCLC): > 100 µM | TGI (CCRF-CEM leukemia): 38.7 µM | TGI (MDA-MB-231 breast): > 100 µM | TGI (TK-10 renal): > 100 µM | TGI (RPMI-8226 leukemia): > 100 µM | TGI (SF-295 CNS): > 100 µM | TGI (SF-539 CNS): > 100 µM | TGI (UO-31 renal): > 100 µM | TGI (UACC-62 melanoma): > 100 µM | TGI (A549 NSCLC): > 100 µM | TGI (U251 CNS): > 100 µM | TGI (RXF 393 renal): > 100 µM | TGI (SF-268 CNS): > 100 µM | TGI (T-47D breast): > 100 µM | TGI (HS 578T breast): > 100 µM | TGI (COLO 205 colon): > 100 µM | TGI (DU-145 prostate): > 100 µM | TGI (CAKI-1 renal): > 100 µM | TGI (OVCAR-3 ovarian): > 100 µM | TGI (LOX IMVI melanoma): > 100 µM | TGI (EKVX NSCLC): > 100 µM | TGI (MDA-N): > 100 µM | TGI (SK-OV-3 ovarian): > 100 µM | TGI (NCI-H23 lung): > 100 µM | TGI (ACHN renal): > 100 µM | TGI (786-0 renal): > 100 µM | TGI (NCI-H522 lung): > 100 µM | TGI (HT29 colon): > 100 µM | TGI (MCF7 breast): > 100 µM | TGI (OVCAR-8 ovarian): > 100 µM | TGI (KM12 colon): > 100 µM | TGI (HOP-62 NSCLC): > 100 µM
